Laboratory results reported in patent US7196110B2, “N-substituted tricyclic 3-aminopyrazoles as inhibitors for the treatment of cell proliferative disorders” (Janssen Phamaceutica N.V., priority 2002, dated 2007).

Biological target: T1, PDGF-receptor beta enzyme comprising the tyrosine kinase domain (Homo sapiens, UniProt P09619)
T1 construct: from amino acid 545 to 1106 of GenBank Access NO: AAA36427
Assay: Inhibition of PDGF-receptor kinase activity (cell-free, PLC1 peptide, 33P Flashplate)
Format: biochemical
Conditions: PDGF-R kinase activity; for inhibition at 10 µM: compound at 10 uM, read-out: Percent Inhibition @ 10 uM; for IC50: read-out: IC50
Description: PDGF-R kinase activity was assayed by its ability to phosphorylate one of its target proteins, PLCγ, in a cell-free system, in particular, a PLC1 peptide comprising the tyrosine residue where the phosphorylation occurs was used for the assay.
10× Kinase Buffer (500 mM Tris-HCl pH=8, 100 mM MgCl2, 1 mM Na3VO4); 10 mM DTT (final concentration at 1 mM in assay); 10 mM ATP (final concentration at 5 μM in assay); ^33P-γ-ATP (Cat. No.: NEG/602H. 2000-3000 Ci/mmol) purchased from NEN; Purified, soluble, recombinant PDGF-receptor beta enzyme comprising the tyrosine kinase domain (from amino acid 545 to 1106 of GenBank Access NO: AAA36427 ) at 0.4 mg/mL; Enzyme Dilution Buffer (50 mM Tris-HCl pH=8.0, 0.1% BSA); Wash/Stop Buffer (PBS +100 mM EDTA); NEN Streptavidin Flashplates (Cat. No.: SMP-103) which binds to the biotinylated PLC1 peptide but not the PDGF-R enzyme; PLC1 peptide (Biotin-[…]-Amide) at 1 mM in 50 mM Tris-HCL with pH of 8.0.
Reagents were first mixed according the following regimen:
The above reaction mixture was dispensed into each well of a Flashplate at 70 μl/well. To test the effect of a compound on PDGF-R kinase activity, the test compound either in a fixed concentration or in serially diluted concentrations in 100% DMSO was added to appropriate wells at 1 μl/well.
Enzyme PDGF-R was diluted in Enzyme dilution buffer as following:
The kinase reaction was initiated by adding 30 μl of diluted PDGF-R enzyme solution to each well on the Flashplate containing hot ATP and PLC1, except wells of column 12 rows E through H, which were used to calculate the plate background. The Flashplate was swirled to mix and was incubated at 30° C. for 60 minutes. Then, the reaction mixture was discarded and the Flashplate was washed 3 times each with 200 μl Wash/Stop Buffer. Subsequently, each well on the Flashplate was filled with 200 μl of Wash/Stop buffer. The amount of ^33P retained in each well was measured using a Packard TopCount after the plate was sealed with a transparent plate sealer.
The percentage of inhibition of the test compound on PDGF-R kinase activity is defined as […].
In order to test the potency of inhibition of present compounds, an IC50 for an individual compound was measured using the above procedure. As used herein, the IC50 for PDGF-R kinase activity refers to the concentration of an inhibitor at which the activity of the PDGF-R kinase is reduced by one-half as compared with reactions containing no inhibitor.

T1 sequence (P09619 545-1106): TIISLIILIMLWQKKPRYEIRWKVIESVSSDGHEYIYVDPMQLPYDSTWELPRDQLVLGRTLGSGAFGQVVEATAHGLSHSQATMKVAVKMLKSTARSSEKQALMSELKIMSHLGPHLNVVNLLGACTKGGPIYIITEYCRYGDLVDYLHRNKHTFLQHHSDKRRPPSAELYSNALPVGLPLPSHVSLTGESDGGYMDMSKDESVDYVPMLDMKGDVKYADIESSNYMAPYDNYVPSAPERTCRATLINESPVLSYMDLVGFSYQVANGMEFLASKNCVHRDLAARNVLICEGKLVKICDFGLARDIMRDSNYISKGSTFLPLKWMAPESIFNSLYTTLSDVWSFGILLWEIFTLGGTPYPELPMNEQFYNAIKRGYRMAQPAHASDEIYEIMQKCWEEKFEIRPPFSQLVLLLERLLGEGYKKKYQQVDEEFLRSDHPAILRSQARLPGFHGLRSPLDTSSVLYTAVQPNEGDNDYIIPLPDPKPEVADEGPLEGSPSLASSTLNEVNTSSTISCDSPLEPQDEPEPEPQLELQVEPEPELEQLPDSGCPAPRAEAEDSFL

| Structure (SMILES) | inhibition at 10 µM | IC50 |
| --- | --- | --- |
| CN1CCN(c2ccc3c(c2)Cc2c-3n[nH]c2Nc2ccccc2)CC1 [Compound 64, [6-(4-Methyl-piperazin-1-yl)-2,4-dihydro-indeno[1,2-c]pyrazol-3-yl]-phenyl-amine] | 118% | 449 nM |
| c1ccc(Nc2[nH]nc3c2Cc2cc(N4CCCCC4)ccc2-3)cc1 [Compound 65, Phenyl-(6-piperidin-1-yl-2,4-dihydro-indeno[1,2-c]pyrazol-3-yl)-amine] | 76% | 1540 nM |
| COc1cc2c(cc1OC)-c1n[nH]c(NC3CCCCC3)c1C2 [Compound 67, Cyclohexyl-(6,7-dimethoxy-2,4-dihydro-indeno[1,2-c]pyrazol-3-yl)-amine] | 77% | 617 nM |
| COc1cc2c(cc1OC)-c1n[nH]c(NCCN3CCOCC3)c1C2 [Compound 69, (6,7-Dimethoxy-2,4-dihydro-indeno[1,2-c]pyrazol-3-yl)-(2-morpholin-4-yl-ethyl)-amine] | 18% | – |
| COc1cc2c(cc1OC)-c1n[nH]c(Nc3cc(C(F)(F)F)cc(C(F)(F)F)c3)c1C2 [Compound 70, (3,5-Bis-trifluoromethyl-phenyl)-(6,7-dimethoxy-2,4-dihydro-indeno[1,2-c]pyrazol-3-yl)-amine] | 41.5% | 16800 nM |
| CN(C)CCCOc1cccc2c1Cc1c-2n[nH]c1Nc1ccc(F)cc1 [Compound 73, [5-(3-Dimethylamino-propoxy)-2,4-dihydro-indeno[1,2-c]pyrazol-3-yl]-(4-fluoro-phenyl)-amine] | ~30% | > 50000 nM |
| COc1cccc(Nc2[nH]nc3c2Cc2c(OCCCN(C)C)cccc2-3)c1 [Compound 74, [5-(3-Dimethylamino-propoxy)-2,4-dihydro-indeno[1,2-c]pyrazol-3-yl]-(3-methoxy-phenyl)-amine] | 102% | 424 nM |
| CN(C)CCCOc1cccc2c1Cc1c-2n[nH]c1Nc1cccnc1 [Compound 75, [5-(3-Dimethylamino-propoxy)-2,4-dihydro-indeno[1,2-c]pyrazol-3-yl]-pyridin-3-yl-amine] | 115% | 575 nM |
| COc1cc2c(cc1OC)-c1n[nH]c(Nc3ccc(Br)cc3C(F)(F)F)c1C2 [Compound 76, (4-Bromo-2-trifluoromethyl-phenyl)-(6,7-dimethoxy-2,4-dihydro-indeno[1,2-c]pyrazol-3-yl)-amine] | 16% | > 50000 nM |
| COc1cc2c(cc1OC)-c1n[nH]c(Nc3ccco3)c1C2 [Compound 78, (6,7-Dimethoxy-2,4-dihydro-indeno[1,2-c]pyrazol-3-yl)-furan-2-yl-amine] | 85% | 1290 nM |
| COc1cc2c(cc1OC)-c1n[nH]c(Nc3ccc4c(c3)CCC4)c1C2 [Compound 79, (6,7-Dimethoxy-2,4-dihydro-indeno[1,2-c]pyrazol-3-yl)-indan-5-yl-amine] | 56% | 3710 nM |
| COc1cc2c(cc1OC)-c1n[nH]c(NCCN3CCCCC3)c1C2 [Compound 81, (6,7-Dimethoxy-2,4-dihydro-indeno[1,2-c]pyrazol-3-yl)-(2-piperidin-1-yl-ethyl)-amine] | 29% | 85900 nM |
| COc1ccc2c(c1)Cc1c-2n[nH]c1Nc1cccnc1 [Compound 84, (6-Methoxy-2,4-dihydro-indeno[1,2-c]pyrazol-3-yl)-pyridin-3-yl-amine] | 86% | 710 nM |
| COc1ccc2c(c1)Cc1c-2n[nH]c1Nc1cc(OC)ccc1OC [Compound 85, (2,5-Dimethoxy-phenyl)-(6-methoxy-2,4-dihydro-indeno[1,2-c]pyrazol-3-yl)-amine] | 61% | 5820 nM |
| COc1ccc2c(c1)Cc1c-2n[nH]c1Nc1ccc(OC)c(OC)c1 [Compound 86, (3,4-Dimethoxy-phenyl)-(6-methoxy-2,4-dihydro-indeno[1,2-c]pyrazol-3-yl)-amine] | 57% | 2530 nM |
| COc1ccc2c(c1)Cc1c-2n[nH]c1Nc1ccc(OC(F)(F)F)cc1 [Compound 88, (6-Methoxy-2,4-dihydro-indeno[1,2-c]pyrazol-3-yl)-(4-trifluoromethoxy-phenyl)-amine] | 42% | 20800 nM |
| COc1ccc2c(c1)Cc1c-2n[nH]c1Nc1ccc(C(F)(F)F)cc1 [Compound 89, (6-Methoxy-2,4-dihydro-indeno[1,2-c]pyrazol-3-yl)-(4-trifluoromethyl-phenyl)-amine] | 88% | 886 nM |
| c1ccc(Nc2[nH]nc3c2CCc2ccccc2-3)cc1 [Compound 93, (4,5-Dihydro-2H-benzo[g]indazol-3-yl)-phenyl-amine] | 88% | 1030 nM |
| c1ccc(Nc2[nH]nc3c2Cc2sccc2-3)cc1 [Compound 94, (5,7-Dihydro-1-thia-4,5-diaza-cyclopenta[a]pentalen-6-yl)-phenyl-amine] | 95% | 415 nM |
| Cc1cccc2c1Cc1c-2n[nH]c1Nc1ccc(F)cc1 [Compound 98, (4-Fluoro-phenyl)-(5-methyl-2,4-dihydro-indeno[1,2-c]pyrazol-3-yl)-amine] | 26% | 30700 nM |
| Cc1cccc2c1Cc1c-2n[nH]c1Nc1cccc(F)c1 [Compound 99, (3-Fluoro-phenyl)-(5-methyl-2,4-dihydro-indeno[1,2-c]pyrazol-3-yl)-amine] | 87.5% | 1470 nM |
| Cc1cccc2c1Cc1c-2n[nH]c1Nc1cccnc1 [Compound 100, (5-Methyl-2,4-dihydro-indeno[1,2-c]pyrazol-3-yl)-pyridin-3-yl-amine] | 81% | 1720 nM |

Now from value to compound:

| inhibition at 10 µM | IC50 | Structure (SMILES) |
| --- | --- | --- |
| 108% | 92 nM | Nc1ccc2c(c1)Cc1c-2n[nH]c1Nc1ccccc1 [Compound 66, N3-Phenyl-2,4-dihydro-indeno[1,2-c]pyrazole-3,6-diamine] |
| 110% | 185 nM | CN(C)CCCOc1cccc2c1Cc1c-2n[nH]c1Nc1ccccc1 [Compound 71, [5-(3-Dimethylamino-propoxy)-2,4-dihydro-indeno[1,2-c]pyrazol-3-yl]-phenyl-amine] |
| 96% | 283 nM | CN(C)CCCOc1cccc2c1Cc1c-2n[nH]c1Nc1cccc(Cl)c1 [Compound 72, (3-Chloro-phenyl)-[5-(3-dimethylamino-propoxy)-2,4-dihydro-indeno[1,2-c]pyrazol-3-yl]-amine] |
| 108% | 217 nM | COC(=O)c1cccc(Nc2[nH]nc3c2Cc2c(OCCCN(C)C)cccc2-3)c1 [Compound 77, 3-[5-(3-Dimethylamino-propoxy)-2,4-dihydro-indeno[1,2-c]pyrazol-3-ylamino]-benzoic acid methyl ester] |
| 79% | 273 nM | COc1ccc2c(c1)Cc1c-2n[nH]c1Nc1ccc(F)cc1 [Compound 82, (4-Fluoro-phenyl)-(6-methoxy-2,4-dihydro-indeno[1,2-c]pyrazol-3-yl)-amine] |
| 93% | 71.9 nM | COc1ccc2c(c1)Cc1c-2n[nH]c1Nc1cccc(Br)c1 [Compound 83, (3-Bromo-phenyl)-(6-methoxy-2,4-dihydro-indeno[1,2-c]pyrazol-3-yl)-amine] |
| 91% | 69 nM | COc1ccc2c(c1)Cc1c-2n[nH]c1Nc1cc(F)ccc1F [Compound 87, (2,5-Difluoro-phenyl)-(6-methoxy-2,4-dihydro-indeno[1,2-c]pyrazol-3-yl)-amine] |
| 75% | 383 nM | CN(C)c1ccc2c(c1)Cc1c-2n[nH]c1Nc1ccccc1 [Compound 92, N6,N6-Dimethyl-N3-phenyl-2,4-dihydro-indeno[1,2-c]pyrazole-3,6-diamine] |
| 91% | 63 nM | Brc1cccc(Nc2[nH]nc3c2Cc2cc4c(cc2-3)OCO4)c1 [Compound 95, (3-Bromo-phenyl)-(2,9-dihydro-5,7-dioxa-2,3-diaza-cyclopenta[a]-s-indacen-1-yl)-amine] |
| 93% | 76 nM | Fc1cccc(Nc2[nH]nc3c2Cc2cc4c(cc2-3)OCO4)c1 [Compound 96, (2,9-Dihydro-5,7-dioxa-2,3-diaza-cyclopenta[a]-s-indacen-1-yl)-(3-fluoro-phenyl)-amine] |
